In patent US20250281465A1, “MOLECULES THAT ENHANCE EXTRACELLULAR VESICLE RELEASE” (priority 2022, published 2025):

Key:
[1] = system: CD63-Tluc-CD9-EmGFP THP-1 reporter cells; test: CD63 Tluc-CD9 EmGFP THP-1 reporter cell assay (EV/exosome release); type: cell-based, human; settings: 48 hours incubation
Protocol: All these analogs were evaluated for induction of IL-12 cytokine at 10 μM, followed by dose response IL-12 induction for selected analogs. These analogs were also evaluated for exosome release by quantitating EV release in the supernatant post 48 hours incubation with CD63-Tluc-CD9-EmGFP THP-1 reporter cells.
In the HTS using CD63-Tluc-CD9EmGFP reporter cells (CD63 HTS), PMA (10 ng/ml) was used as a positive control (Shpigelman et al., 2021) and 0.5% DMSO was used as negative control (vehicle, Veh). Briefly, the harvested cells were resuspended in assay media containing 10% exosome-depleted […] (#A2720801, Thermo Fisher Scientific) and plated at 2×10^5 cells/mL (50 μL/well of 384-well plates) (#3674, Corning). Test compounds were added at a final concentration of 10 μM to cells and incubated for 48 hours at 37° C. Subsequently, the plate was centrifuged, supernatant (25 μL) was transferred, and chemiluminescent was measured as recombinant luciferase activity (RLU) after 10 minutes incubation with TurboLuc assay reagent (TurboLuc™ One-Step Glow Assay kit, Thermo Fisher Scientific). The response that measures activation and subsequent release of EVs was calculated using the following formula; % response=100×(compound RLU−average Veh RLU)/(average PMA RLU−average Veh RLU). The viability of cells was assessed using PrestoBlue reagent (Thermo Fisher Scientific). Briefly, PrestoBlue reagent (2.5 μl) was added to the remaining cells and incubated for 30 minutes at room temperature, followed by fluorescence readout at (Ex 560 nm/Em 590 nm) which was normalized to fluorescence data of the Veh wells within the plate to obtain “% viability” calculated as 100×(compound fluorescence/average Veh fluorescence).
CD63 Tluc-CD9 EmGFP THP-1 reporter cell assay. CD63 Tluc CD9 EmGFP THP-1 reporter cell (designated as CD63 Tluc reporter cells) were incubated with 10 μM test compounds, ION (1 μM), or 0.5% DMSO (negative control) in the RPMI 1640 supplemented with exosome-depleted FBS at 5×10^4 cells in 200 μL/well for a 96-well plate for 48 hours at 37° C. Subsequently, the plate was centrifuged, the supernatant was transferred, and chemiluminescence was measured by TurboLuc™ Luciferase One-Step Glow Assay Kit. The response that measures activation and subsequent release of EVs was calculated using the following formula; % response=100×(compound RLU−average Veh RLU)/(average PMA RLU−average Veh RLU).

[2] = system: mBMDCs; test: Costimulatory molecule expression on mBMDCs (flow cytometry); type: cell-based, mouse; settings: 634 10 μM, ION 1 μM, MPLA 1 μg/mL overnight, vs Veh
Protocol: FIGS. 26A-26D. Flow cytometric analysis for costimulatory molecules on mBMDCs. For costimulatory molecules on mBMDCs, mBMDCs (10^6 cells/mL) were incubated with 634 (10 μM), ION (1 μM), and MPLA (1 μg/mL) for 20-24 hours. 0.5% DMSO was used as a vehicle. After removing the supernatant, cells were washed with the stain buffer and incubated with anti-mouse CD16/32 antibody for blocking FcR. Cells were stained with an antibody cocktail with anti-CD86 (A), anti-CD80 (B), anti-MHC class II (C), and anti-CD40 (D) antibodies for 30 minutes at 4° C. Cells were then washed and stained with DAPI (4′,6-diamino-2phenylindole) for 10 minutes at room temperature to exclude dead cells (DAPI^high) from the analysis. Data were acquired using MACSQuant Analyzer 10 (Miltenyi Biotec, Germany) and analyzed with FlowJo (version 10.8.1).
mBMDCs (10^5 cells/200 μL/well) were treated with a test compound (10 μM) or Veh (0.5% DMSO) overnight and then the costimulatory molecule expression on mBMDCs was evaluated using flow cytometry. The cells were stained with antibodies for CD11c, CD80, CD83, CD86, CD40, and MHC class II. Dead cells (DAPI high) were excluded from the analysis. Percent positive population of CD80, CD83, CD86, CD40, or MHC class II in the gated CD11c population were analyzed.
Costimulatory Molecule Expression Analysis. mBMDCs (10^6 cells/mL) were incubated with 10 μM compound, 1 μM lonomycin and 1 μg/mL MPLA for 20 to 24 hours. 0.5% DMSO was used as vehicle. Cells were incubated with anti-mouse CD16/32 antibody for blocking FcR and stained with anti-CD11c, anti-CD40, […], anti-CD83, […], or anti-MHC class II antibodies for 30 minutes at 4° C. Cells were stained with 4′,6-diamino-2-phenylindole (DAPI) for 10 minutes at RT. Data were acquired using MACSQuant Analyzer 10 (Miltenyi Biotec, Germany) and analyzed with FlowJo (version 10.8.1, Becton Dickinson, Ashland, OR)).

Compound	exosome (EV) release in CD63 reporter THP-1 cells [1]	CD80 expression on mBMDCs [2]	CD86 expression on mBMDCs [2]
CCOC(=O)c1c(NS(=O)(=O)c2cccc3c2N=S=N3)sc(C)c1C [#634, ethyl 2-(benzo[c][1,2,5]thiadiazole-4-sulfonamido)-4,5-dimethylthiophene-3-carboxylate]	enhanced exosome release		
CCOC(=O)c1c(NS(=O)(=O)c2cccc3nsnc23)sc(C)c1C [compound 634, Ethyl 2-(benzo[c][1,2,5]thiadiazole-4-sulfonamido)-4,5-dimethylthiophene-3-carboxylate]		increased CD86 and CD80 expression on mBMDCs	increased CD86 and CD80 expression on mBMDCs
